The term IC50 denotes the midpoint of a concentration-inhibition curve. Low readings indicate greater potency in that assay, high ones weaker potency in that assay.

Active and inactive are the calls of the source. No cut-off for these calls is given here. Starred links: 1 amine or outer side, 2 acyl side, 3 side chain; linkers in the order of their positions; H or OH if unused. Positions of bridges follow the written chain, without caps; N, C: chain ends. Non-standard residues stand in square brackets, D forms with d. Residues, ends and D or L forms follow the SMILES beside them. NMehTyr = CN[C@@H](CCc1ccc(O)cc1)C(=O)O; hTyr = N[C@@H](CCc1ccc(O)cc1)C(=O)O; NMeA = CN[C@@H](C)C(=O)O; CO = O=C([*:1])[*:2]

Here are results for eight compounds from ChEMBL document CHEMBL1155591, “New anabaenopeptins, potent carboxypeptidase-A inhibitors from the cyanobacterium Aphanizomenon flos-aquae” (J Nat Prod, 2000).

One assay addresses T1, Carboxypeptidase A1 (Homo sapiens, UniProt P15085).
T1 sequence (P15085 whole entry): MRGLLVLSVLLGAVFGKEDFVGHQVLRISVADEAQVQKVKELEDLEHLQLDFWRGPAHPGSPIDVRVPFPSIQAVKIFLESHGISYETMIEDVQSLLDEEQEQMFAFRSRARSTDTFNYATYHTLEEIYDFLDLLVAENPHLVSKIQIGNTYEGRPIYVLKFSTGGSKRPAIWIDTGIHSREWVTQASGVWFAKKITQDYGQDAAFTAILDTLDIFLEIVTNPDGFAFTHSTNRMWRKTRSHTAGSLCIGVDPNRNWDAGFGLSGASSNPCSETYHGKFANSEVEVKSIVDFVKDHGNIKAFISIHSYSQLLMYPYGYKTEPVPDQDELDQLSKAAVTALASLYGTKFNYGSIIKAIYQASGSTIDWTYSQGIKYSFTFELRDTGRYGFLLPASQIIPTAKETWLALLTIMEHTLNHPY
The assay is described as follows: Inhibition of carboxypeptidase A.
Compound `CC[C@H](C)[C@@H]1NC(=O)[C@H](NC(=O)N[C@@H](Cc2ccc(O)cc2)C(=O)O)CCCCNC(=O)[C@H]([C@@H](C)CC)NC(=O)[C@H](CCc2ccc(O)cc2)N(C)C(=O)[C@H](CCc2ccc(O)cc2)NC1=O` [ANABAENOPEPTIN G] ({Tyr-CO}-[dK]I[hTyr][NMehTyr]I; lactam 1-C) showed an IC50 of 7.53 nM.

`CC[C@H](C)[C@@H]1NC(=O)[C@H](NC(=O)N[C@@H](CCCNC(=N)N)C(=O)O)CCCCNC(=O)[C@H]([C@@H](C)CC)NC(=O)[C@H](CCc2ccc(O)cc2)N(C)C(=O)[C@H](CCc2ccc(O)cc2)NC1=O` [ANABAENOPEPTIN H] ({Arg-CO}-[dK]I[hTyr][NMehTyr]I; lactam 1-C) had an IC50 of 3680 nM.

As to `CC[C@H](C)[C@H](NC(=O)N[C@@H]1CCCCNC(=O)[C@H](CC(C)C)NC(=O)[C@H](C)N(C)C(=O)[C@H](CCc2ccc(O)cc2)NC(=O)[C@H](C(C)C)NC1=O)C(=O)O` [ANABAENOPEPTIN I] ({Ile-CO}-[dK]V[hTyr][NMeA]L; lactam 1-C), inhibition was half-maximal at 6.84 nM (IC50). This IC50 lies about 540-fold lower than the previous one.

The compound `CC[C@H](C)[C@H](NC(=O)N[C@@H]1CCCCNC(=O)[C@H](Cc2ccccc2)NC(=O)[C@H](C)N(C)C(=O)[C@H](CCc2ccc(O)cc2)NC(=O)[C@H](C(C)C)NC1=O)C(=O)O` [ANABAENOPEPTIN J] ({Ile-CO}-[dK]V[hTyr][NMeA]F; lactam 1-C) had an IC50 of 9.57 nM.

Consider `CC[C@H](C)[C@H](NC(=O)N[C@@H]1CCCCNC(=O)[C@H]([C@@H](C)CC)NC(=O)[C@H](CCc2ccc(O)cc2)N(C)C(=O)[C@H](CCc2ccc(O)cc2)NC(=O)[C@H](C(C)C)NC1=O)C(=O)O` [ANABAENOPEPTIN T] ({Ile-CO}-[dK]V[hTyr][NMehTyr]I; lactam 1-C), for which half-maximal inhibition (IC50) required 25.4 nM.

The target in the next assay is T2, Carboxypeptidase A1 (Homo sapiens) (UniProt P15085).
T2 sequence (whole entry): T1 sequence (P15085 whole entry)
The assay is described as follows: Inhibition of carboxypeptidase A at 10 ug/ml.
In the case of `CC(C)[C@@H]1NC(=O)[C@H](NC(=O)N[C@@H](CCCNC(=N)N)C(=O)O)CCCCNC(=O)[C@H](Cc2ccccc2)NC(=O)[C@H](C)N(C)C(=O)[C@H](CCc2ccc(O)cc2)N(C)C1=O`, the result was inactive.

Take `CC[C@H](C)[C@@H]1NC(=O)[C@H](NC(=O)N[C@@H](CCCNC(=N)N)C(=O)O)CCCCNC(=O)[C@H](Cc2ccccc2)NC(=O)[C@H](C)N(C)C(=O)[C@H](CCc2ccc(O)cc2)NC1=O` ({Arg-CO}-[dK]I[hTyr][NMeA]F; lactam 1-C): the outcome was inactive.

Regarding `CC(C)[C@@H]1NC(=O)[C@H](NC(=O)N[C@@H](CCCNC(=N)N)C(=O)O)CCCCNC(=O)[C@H](Cc2ccccc2)NC(=O)[C@H](C)N(C)C(=O)[C@H](CCc2ccc(O)cc2)NC1=O` ({Arg-CO}-[dK]V[hTyr][NMeA]F; lactam 1-C), the result was inactive.
